Source: patent US20150105252A1, “SUBSTITUTED PYRAZOLES AS HERBICIDES” (E I DU PONT DE NEMOURS AND COMPANY, priority 2013, published 2015)

Assays:
barnyardgrass = experiment: Test A preemergence; assay type: in vivo, Echinochloa crus-galli; conditions: for Barnyardgrass plant response rating (0 to 100 scale, 0 is no effect, 100 is complete control): visual injury approx. 10 days after treatment
Procedure, shortened: (§1)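 Visual injury ratings, 0 = no effect to 100 = complete control, taken about 10 days after treatment against untreated controls. Test chemicals, in a non-phytotoxic surfactant-containing solvent, were sprayed onto soil preemergence or onto one- to two-leaf plants (2–10 cm) postemergence, in loam–sand soil under greenhouse conditions.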

morningglory = experiment: Test C preemergence; assay type: in vivo, Ipomoea coccinea
Excerpt: Seeds of plant species selected from blackgrass (Alopecurus myosuroides), ryegrass, Italian (Italian ryegrass, Lolium multiflorum), wheat (winter wheat, Triticum aestivum), galium (catchweed bedstraw, Galium aparine), corn (Zea mays), crabgrass, large (large crabgrass, Digitaria sanguinalis), foxtail, giant (giant foxtail, Setaria faberii), johnsongrass (Sorghum halepense), lambsquarters (Chenopodium album), morningglory (Ipomoea coccinea), nutsedge, yellow (yellow nutsedge, Cyperus esculentus), pigweed (redroot pigweed, Amaranthus retroflexus), ragweed (common ragweed, Ambrosia elation), soybean (Glycine max), barnyardgrass (Echinochloa crus-galli), oilseed rape (Brassica napus), waterhemp (common waterhemp, Amaranthus rudis), oat, wild (wild oat, Avena fatua), kochia (Kochia scoparia), Surinam grass (Brachiaria decumbens), foxtail, green (green foxtail, Setaria viridis), goosegrass (Eleusine indica), bromegrass, downy (downy bromegrass, Bromus tectorum), nightshade (eastern black nightshade, Solanum ptycanthum), cocklebur (common cocklebur, Xanthium strumarium), cupgrass, woolly (woolly cupgrass, Eriochloa villosa), bermudagrass (Cynodon dactylon), sunflower, (common oilseed sunflower, Helianthus annuus), Russian thistle (Salsola kali), and velvetleaf (Abutilon theophrasti) were planted into a blend of loam soil and sand and treated preemergence with test chemicals formulated in a non-phytotoxic solvent mixture which included a surfactant.
At the same time, plants selected from these crop and weed species and also chickweed (common chickweed, Stellaria media), canarygrass (littleseed canarygrass, Phalaris minor), and deadnettle (henbit deadnettle, Lamium amplexicaule), were planted in pots containing Redi-Earth® planting medium (Scotts Company, 14111 Scottslawn Road, Marysville, Ohio 43041) comprising spaghnum peat moss, vermiculite, wetting agent and starter nutrients and treated with postemergence applications of test chemicals formulated in the same manner. Plants ranged in height from 2 to 18 cm (1- to 4-leaf stage) for postemergence treatments. Treated plants and controls were maintained in a greenhouse for 13 to 15 days, after which time all species were compared to controls and visually evaluated. Plant response ratings, summarized in Table C, are based on a scale of 0 to 100 where 0 is no effect and 100 is complete control. A dash (-) response means no test result.

wheat = experiment: Test A postemergence; assay type: in vivo, Triticum aestivum
Procedure, shortened: as §1

[1] = preemergence, 125 g ai/ha, visual injury, 0 to 100 scale, approx. 10 days
[2] = preemergence, 500 g ai/ha, visual injury after approx. 10 days, 0 to 100 scale (0 no effect, 100 complete control)
[3] = preemergence, 31 g ai/ha, visual rating, scale 0 to 100 (0 no effect, 100 complete control), 13 to 15 days
[4] = preemergence, 62 g ai/ha, scale 0 to 100 (0 no effect, 100 complete control), 13 to 15 days
[5] = preemergence, 125 g ai/ha, 13 to 15 days, scale 0 to 100, 0 = no effect, 100 = complete control
[6] = preemergence, 250 g ai/ha, scale 0 to 100, 0 is no effect, 100 is complete control
[7] = Postemergence, 500 g ai/ha, 0 to 100 scale (0 no effect, 100 complete control)
[8] = postemergence, 125 g ai/ha, about 10 days, visual rating on 0 to 100 scale (0 no effect, 100 complete control)
[9] = Preemergence, 500 g ai/ha, 0 to 100 scale, 0 no effect, 100 complete control
[10] = Postemergence, 500 g ai/ha, visual rating after approx. 10 days, 0 to 100 scale (0 no effect, 100 complete control)
[11] = Postemergence, 125 g ai/ha, 0 to 100 scale, 0 no effect, 100 complete control
[12] = Preemergence, 1000 g ai/ha, 0 to 100 scale, 0 no effect, 100 complete control
[13] = Postemergence, 1000 g ai/ha, visual rating after approx. 10 days, 0 to 100 scale (0 no effect, 100 complete control)
[14] = preemergence, 125 g ai/ha, scale 0 to 100, 0 is no effect, 100 is complete control
[15] = Preemergence, rate head not shown (block before 16 g ai/ha), scale 0 to 100

Row | Structure (SMILES) | Barnyardgrass plant response rating (barnyardgrass; [1]) | Barnyardgrass plant response rating (barnyardgrass; [2]) | Morningglory plant response rating (morningglory; [3]) | Morningglory plant response rating (morningglory; [4]) | Plant response rating, Morningglory (morningglory; [5]) | Morningglory plant response rating (morningglory; [6]) | Wheat plant response rating (wheat; [7]) | Wheat plant response rating (wheat; [8]) | Barnyardgrass plant response rating (0 to 100 scale, 0 is no effect, 100 is complete control) (barnyardgrass; preemergence, 125 g ai/ha) | Wheat plant response rating (wheat; [11]) | also measured
1 | O=C(NCC(F)(F)F)c1cc(CCF)n(Cc2ccnc(C(F)(F)F)c2)n1 [Compound 175] | 100 | 100 | 95 | 100 | 100 | 100 | 80 | 40 | – | – | –
2 | CCc1cc(C(=O)NC2CC2)nn1Cc1ccnc(C(F)(F)F)c1 [Compound 76] | 80 | – | – | – | – | – | – | 80 | – | – | Barnyardgrass plant response rating (barnyardgrass; [9]): 100; Wheat plant response rating (wheat; [10]): 90
3 | CCc1cc(C(=O)NCC(F)(F)F)nn1Cc1ccnc(SC(F)(F)F)c1 [Compound 214] | – | 100 | 25 | 98 | 100 | 100 | 90 | – | 100 | 80 | –
4 | CCCNC(=O)c1cc(OCC)n(Cc2ccnc(OC(F)F)c2)n1 [Compound 136] | 100 | 100 | 100 | 100 | 100 | 100 | 90 | 60 | – | – | –
5 | O=C(NC1CC1)c1cc(CCCl)n(Cc2ccnc(C(F)(F)F)c2)n1 [Compound 144] | 100 | 100 | 60 | 100 | 100 | 100 | 90 | 50 | – | – | –
6 | CCOc1cc(C(=O)NCC(F)(F)F)nn1Cc1cc(C(F)(F)F)nn1C [Compound 140] | 90 | 100 | 90 | – | – | – | 70 | 40 | – | – | Plant response rating, Morningglory (morningglory; Preemergence, 4 g ai/ha, scale 0 to 100): 5; Plant response rating, Morningglory (morningglory; Preemergence, 8 g ai/ha, scale 0 to 100): 5; Plant response rating, Morningglory (morningglory; Preemergence, 16 g ai/ha, scale 0 to 100): 95
7 | CCCNC(=O)c1cc(CC)n(Cc2ccnc(C(F)(F)F)c2)n1 [Compound 75] | 100 | – | – | – | – | – | – | 80 | – | – | Barnyardgrass plant response rating (barnyardgrass; [9]): 100; Wheat plant response rating (wheat; [10]): 90
8 | CCCNC(=O)c1cc(CC)n(Cc2cccc(OC(F)(F)F)c2)n1 [Compound 27] | – | – | – | – | – | – | – | – | – | – | Barnyardgrass plant response rating (barnyardgrass; [12]): 50; Wheat plant response rating (wheat; [13]): 40
9 | CCc1cc(-c2ccc(C(F)(F)F)cc2)nn1Cc1ccnc(C(F)(F)F)c1 [Compound 110] | 100 | 100 | – | – | – | – | – | 80 | – | – | Wheat plant response rating (wheat; [10]): 90
10 | CCNC(=O)c1cc(CC)n(Cc2cc(C(F)(F)F)nn2C)n1 [Compound 154] | 90 | 100 | 35 | 90 | 100 | 100 | 100 | 20 | – | – | –
11 | CCc1cc(C(=O)NCC(F)(F)F)nn1Cc1cc(C(F)(F)F)nn1C [Compound 108, 5-ethyl-1-[[1-methyl-3-(trifluoromethyl)-1H-pyrazole-5-yl]methyl]-N-(2,2,2-trifluoroethyl)-1H-pyrazole-3-carboxamide] | 90 | 100 | 98 | 100 | – | – | – | 40 | – | – | Plant response rating (scale of 0 to 100), Morningglory (morningglory; Preemergence, 250 g ai/ha): 100; Morningglory plant response rating (morningglory; [14]): 100; Wheat plant response rating (wheat; [10]): 90
12 | CCCc1cc(C(=O)NC(C)C)nn1Cc1cc(C(F)(F)F)nn1C [Compound 201] | – | 100 | 85 | 100 | 100 | 100 | 100 | – | 100 | 90 | –
13 | CCc1cc(C(=O)NOC(C)C)nn1Cc1ccnc(OC(F)F)c1 [Compound 126] | 90 | 100 | 55 | 70 | – | – | 90 | 90 | – | – | Plant response rating (scale of 0 to 100), Morningglory (morningglory; Preemergence, 250 g ai/ha): 100; Morningglory plant response rating (morningglory; [14]): 98
14 | CCc1cc(C(=O)NCC(F)(F)F)nn1Cc1ccnc(Br)c1 [Compound 224] | – | 100 | – | 10 | 40 | 100 | 90 | – | 90 | 30 | Plant response rating, Morningglory (morningglory; [15]): 5
15 | CCCc1cc(C(=O)NC(C)C)nn1Cc1ccnc(C(F)(F)F)c1 [Compound 186] | – | 100 | 98 | 70 | 100 | 100 | 90 | – | 100 | 0 | –
16 | CCOc1cc(C(=O)NOC(C)C)nn1Cc1ccnc(C(F)(F)F)c1 [Compound 153] | 90 | 100 | 30 | 80 | 100 | 100 | 100 | 90 | – | – | –
17 | CCCNC(=O)c1cc(OCC)n(Cc2ccnc(C(F)(F)F)c2)n1 [Compound 187] | – | 100 | 85 | 100 | 100 | 100 | 80 | – | 90 | 50 | –
18 | CCc1cc(C(=O)NC2CC2)nn1Cc1ccnc(Br)c1 [Compound 220] | – | 100 | – | 5 | 65 | 75 | 90 | – | 80 | 0 | Plant response rating, Morningglory (morningglory; [15]): 0
19 | CCc1cc(C(=O)NCC(F)(F)F)nn1Cc1cccc(OC(F)(F)F)c1 [Compound 20] | – | – | – | – | – | – | – | – | – | – | Barnyardgrass plant response rating (barnyardgrass; [12]): 80; Wheat plant response rating (wheat; [13]): 40
